{
  "source": "patent US7414054B2",
  "about": "“3-(arylamino)methylene-1, 3-dihydro-2H-indol-2-ones as kinase inhibitors” (Allergan, Inc., priority 2001, dated 2008)",
  "key": {"[1]": {"target": "T1, cytoplasmic domain of the human VEGF receptor (VEGFR-2) (Homo sapiens, UniProt P35968)", "T1 construct": "The cytoplasmic domain of the human VEGF receptor (VEGFR-2) was expressed as a Histidine-tagged fusion protein; His (Histidine tag); made in house; host or cells: insect cells (baculovirus)", "T1 sequence (P35968 786-1356 limits assumed)": "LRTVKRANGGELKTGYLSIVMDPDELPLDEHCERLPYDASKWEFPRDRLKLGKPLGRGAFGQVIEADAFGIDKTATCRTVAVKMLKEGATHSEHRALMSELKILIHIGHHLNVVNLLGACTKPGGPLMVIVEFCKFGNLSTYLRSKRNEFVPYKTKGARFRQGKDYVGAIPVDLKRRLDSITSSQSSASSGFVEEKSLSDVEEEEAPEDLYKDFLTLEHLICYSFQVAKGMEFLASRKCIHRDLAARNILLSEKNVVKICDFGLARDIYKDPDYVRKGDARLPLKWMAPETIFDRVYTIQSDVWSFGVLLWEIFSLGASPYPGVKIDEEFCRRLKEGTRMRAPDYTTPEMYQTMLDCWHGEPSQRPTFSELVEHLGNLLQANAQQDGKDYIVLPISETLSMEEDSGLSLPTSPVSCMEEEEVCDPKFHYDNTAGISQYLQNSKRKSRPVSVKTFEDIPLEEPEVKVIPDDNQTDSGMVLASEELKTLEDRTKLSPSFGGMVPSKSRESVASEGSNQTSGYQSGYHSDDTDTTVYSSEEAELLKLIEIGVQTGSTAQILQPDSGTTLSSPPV", "test": "KDR Assay", "format": "biochemical", "conditions": "His-VEGFR-2; 3.6 μM ATP", "procedure": "Automated FLIPR (Fluorometric Imaging Plate Reader) technology was used to screen for inhibitors of VEGF induced increases in intracellular calcium levels in fluorescent dye loaded endothelial cells. HUVEC (human umbilical vein endothelial cells) (Clonetics) were seeded in 96-well fibronectin coated black-walled plates overnight at 37° C./5% CO2. Cells were loaded with calcium indicator Fluo-4 for 45 minutes at 37° C. Cells were washed 4 times (Original Cell Wash, Labsystems) to remove extracellular dye. Test compounds were reconstituted in 100% DMSO and added to the cells to give a final DMSO concentration of 0.1%. For screening, cells were pre-incubated with test agents for 30 minutes, at a single concentration (10 μM) or at concentrations ranging from 0.01 to 10.0 μM followed by VEGF stimulation (5 ng/mL). Changes in fluorescence at 516 nm were measured simultaneously in all 96 wells using a cooled CCD camera. Data were generated by determining max-min fluorescence levels for unstimulated, stimulated, and drug treated samples. IC50 values for test compounds were calculated from % inhibition of VEGF stimulated responses in the absence of inhibitor. Protocol for KDR Assay: KDR Assay: The cytoplasmic domain of the human VEGF receptor (VEGFR-2) was expressed as a Histidine-tagged fusion protein following infection of insect cells using an engineered baculovirus. His-VEGFR-2 was purified to homogeneity, as determined by SDS-PAGE, using nickel resin chromatography. Kinase assays were performed in 96 well microtiter plates that were coated overnight with 30 μg of poly-Glu-Tyr (4:1) in 10 mM Phosphate Buffered Saline (PBS), pH 7.2-7.4. The plates were incubated with 1% BSA and then washed four times with PBS prior to starting the reaction. Reactions were carried out in 120 μL reaction volumes containing 3.6 μM ATP in kinase buffer (50 mM Hepes buffer pH 7.4, 20 mM MgCl2, 0.1 mM MnCl2 and 0.2 mM Na3VO4). Test compounds were reconstituted in 100% DMSO and added to the reaction to give a final DMSO concentration of 5%. Reactions were initiated by the addition 0.5 ng of purified protein. Following a ten minute incubation at 25° C., the reactions were washed four times with PBS containing 0.05% Tween-20. 100 μl of a monoclonal anti-phosphotyrosine antibody-peroxidase conjugate was diluted 1:10000 in PBS-Tween-20 and added to the wells for 30 minutes. […] The reaction was terminated by the addition of 100 μl of 2.5N H2SO4 to each well and read using a microplate ELISA reader set at 492 nm. IC50 values for compound inhibition were calculated directly from graphs of optical density (arbitrary units) versus compound concentration following subtraction of blank values. […]"}, "[2]": {"test_system": "VEGF induced increases in intracellular calcium levels in HUVEC (human umbilical vein endothelial cells)", "test": "VEGF Stimulated Ca++ Signal In Vitro (FLIPR)", "format": "cell-based", "conditions": "VEGF 5 ng/mL; for IC50: 0.01 to 10.0 μM", "procedure": "VEGF Stimulated Ca^++ Signal In Vitro\nAutomated FLIPR (Fluorometric Imaging Plate Reader) technology was used to screen for inhibitors of VEGF induced increases in intracellular calcium levels in fluorescent dye loaded endothelial cells. HUVEC (human umbilical vein endothelial cells) (Clonetics) were seeded in 96-well fibronectin coated black-walled plates overnight at 37° C./5% CO2. Cells were loaded with calcium indicator Fluo-4 for 45 minutes at 37° C. Cells were washed 4 times (Original Cell Wash, Labsystems) to remove extracellular dye. Test compounds were reconstituted in 100% DMSO and added to the cells to give a final DMSO concentration of 0.1%. For screening, cells were pre-incubated with test agents for 30 minutes, at a single concentration (10 μM) or at concentrations ranging from 0.01 to 10.0 μM followed by VEGF stimulation (5 ng/mL). Changes in fluorescence at 516 nm were measured simultaneously in all 96 wells using a cooled CCD camera. Data were generated by determining max-min fluorescence levels for unstimulated, stimulated, and drug treated samples. IC50 values for test compounds were calculated from % inhibition of VEGF stimulated responses in the absence of inhibitor. Protocol for KDR Assay: KDR Assay: The cytoplasmic domain of the human VEGF receptor (VEGFR-2) was expressed as a Histidine-tagged fusion protein following infection of insect cells using an engineered baculovirus. His-VEGFR-2 was purified to homogeneity, as determined by SDS-PAGE, using nickel resin chromatography. Kinase assays were performed in 96 well microtiter plates that were coated overnight with 30 μg of poly-Glu-Tyr (4:1) in 10 mM Phosphate Buffered Saline (PBS), pH 7.2-7.4. The plates were incubated with 1% BSA and then washed four times with PBS prior to starting the reaction. Reactions were carried out in 120 μL reaction volumes containing 3.6 μM ATP in kinase buffer (50 mM Hepes buffer pH 7.4, 20 mM MgCl2, 0.1 mM MnCl2 and 0.2 mM Na3VO4). Test compounds were reconstituted in 100% DMSO and added to the reaction to give a final DMSO concentration of 5%. Reactions were initiated by the addition 0.5 ng of purified protein. Following a ten minute incubation at 25° C., the reactions were washed four times with PBS containing 0.05% Tween-20. 100 μl of a monoclonal anti-phosphotyrosine antibody-peroxidase conjugate was diluted 1:10000 in PBS-Tween-20 and added to the wells for 30 minutes. Following four washes with PBS-Tween-20, 100 μl of O-phenylenediamine Dihydrochloride in Phosphate-citrate buffer, containing urea hydrogen peroxide, was added to the wells for 7 minutes as a colorimetric substrate for the peroxidase. The reaction was terminated by the addition of 100 μl of 2.5N H2SO4 to each well and read using a microplate ELISA reader set at 492 nm. IC50 values for compound inhibition were calculated directly from graphs of optical density (arbitrary units) versus compound concentration following subtraction of blank values. VEGF-induced Dermal Extravasation in Guinea Pig (Miles Assay). Male Hartley guinea pigs (300-600 g) were anesthetized with isofluorane, sheared, and given a single dose of drug or the respective vehicle. The guinea pigs were dosed orally unless indicated otherwise in Table 3. Ten minutes prior to the end of drug treatment, guinea pigs were anesthetized with isofluorane, and 0.5% Evans blue dye (EBD) in PBS (13-15 mg/kg dose of EBD) was injected intravenously. After 5 minutes, triplicate intradermal injections of 100 ng rhVEGF165 in 100 μl PBS and of 100 μl PBS alone were administered on the flank. After 20 minutes, each animal was euthanized with Pentosol, and the skin containing the intradermal injection sites was removed for image analysis."}, "[3]": {"test_system": "laser-induced choroidal neovascularization", "test": "Laser-induced Choroidal Neovascularization (CNV) in Rat (CNV Assay)", "format": "in vivo", "procedure": "Laser-induced Choroidal Neovascularization (CNV) in Rat (CNV Assay). CNV was induced and quantified in this model as previously described (Edelman and Castro. Exp. Eye Res. 2000; 71:523-533). On day 0, male Brown Norway rats (200-300 g) were anesthetized with 100 mg/kg Ketamine and 10 mg/kg Xylazine, and pupils were dilated with 1% Tropicamide. Using the blue-green setting of a Coherent Novus Argon Laser, 3 laser burns (90 mW for 0.1 s; 100 μm diameter) were given to each eye between the retinal vessels around the optic nerve head. Rats were dosed with test compounds in their indicated vehicles orally once daily.\nOn day 10, rats were sacrificed with 100% CO2, and blood vessels were labeled by vascular perfusion with 10 mg/ml FITC-dextran (MW 2×10^6). Using an epifluorescence microscope (20×) coupled to a spot digital camera and a PC, images were obtained from the flat mounts of the RPE-choroid-sclera from each eye, and the area occupied by hyperfluorescent neovessels within each laser lesion was measured using ImagePro 4 software.\nTo determine the dose required for 50% inhibition (ID50), the percent inhibition data was plotted as a function of oral dose, using the ‘best-fit’ analysis within MicroSoft Excel software. The ID50 value was verified visually by using the plotted data (horizontal line from 50% y value, at intersection with best-fit line drop vertical line to x axis (dose))."}},
  "data": [
    {"molecule": "4-(5-Chloro-2-oxo-1,2-dihydro-indol-3-ylidenemethyl)-6-indazolylamine [Example 103]", "values": [
      {"measurement": "IC50", "setting": "[1]", "value": 480, "unit": "nM"},
      {"measurement": "VEGF Stimulated Ca^++ signal assay % inhibition @ 10 μM", "setting": "[2]", "value": 96.59, "unit": "%"},
      {"measurement": "IC50", "setting": "[2]", "value": 1040, "unit": "nM"}
    ]},
    {"molecule": "O=C1Nc2ccccc2C1=CNc1cccc(Br)c1", "note": "[Example 2]", "values": [
      {"measurement": "VEGF Stimulated Ca^++ signal assay % inhibition @ 10 μM", "setting": "[2]", "value": "−0.5", "unit": "%"}
    ]},
    {"molecule": "O=C1Nc2ccccc2C1=CNc1ccc(N2CCOCC2)cc1", "note": "[Example 40]", "values": [
      {"measurement": "CNV Assay % inhibition (result in words)", "setting": "[3]; 100 mg/kg (sid), PEG400, oral", "value": "toxic"}
    ]},
    {"molecule": "CC(O)c1ccc(NC=C2C(=O)Nc3ccc(Cl)cc32)cc1", "note": "(stereo not shown) [Example 72, 5-Chloro-3-{[4-(1-hydroxy-ethyl)-phenylamino]-methylene}-1,3-dihydro-indol-2-one]", "values": [
      {"measurement": "VEGF Stimulated Ca^++ signal assay % inhibition @ 10 μM", "setting": "[2]", "value": 81.50, "unit": "%"},
      {"measurement": "IC50", "setting": "[2]", "value": 1560, "unit": "nM"}
    ]},
    {"molecule": "O=C1Nc2ccccc2C1=CNc1ccc2c(c1)OCO2", "note": "[Example 80, 3-[(3,4-Methylenedioxyphenylamino)-methylene]-11,3-dihydro-indol-2-one]", "values": [
      {"measurement": "VEGF Stimulated Ca^++ signal assay % inhibition @ 10 μM", "setting": "[2]", "value": 3.50, "unit": "%"}
    ]},
    {"molecule": "COc1ccc(NC=C2C(=O)Nc3ccc(Cl)cc32)cc1F", "note": "[Example 105, 5-Chloro-3-[(3-fluoro-4-methoxyphenylamino)-methylene]-1,3-dihydro-indol-2-one]", "values": [
      {"measurement": "inhibition at 10 µM", "setting": "[2]; Homo sapiens", "value": 17.5, "unit": "%"}
    ]},
    {"molecule": "Cc1cccc2c1C(=CNc1ccc(C(=O)O)c(O)c1)C(=O)N2", "note": "[Example 155, 2-Hydroxy-4-[(4-methyl-2-oxo-1,2-dihydro-indol-3-ylidenemethyl)-amino]-benzoic acid]", "values": [
      {"measurement": "IC50", "setting": "[1]", "value": 400, "unit": "nM"}
    ]},
    {"molecule": "CCN(CC)Cc1cc(NC=C2C(=O)Nc3cccc(C)c32)ccc1O", "note": "[Example 161, 3-[(3-Diethylaminomethyl-4-hydroxy-phenylamino)-methylene]-4-methyl-1,3-dihydro-indol-2-one]", "values": [
      {"measurement": "IC50", "setting": "[1]", "value": 160, "unit": "nM"}
    ]},
    {"molecule": "CCN(CC)CCCOc1ccc(NC=C2C(=O)Nc3ccccc32)cc1", "note": "[Example 214, 3-{[4-(3-Diethylamino-propoxy)-phenylamino]-methylene}-1,3-dihydro-indol-2-one]", "values": [
      {"measurement": "inhibition in vivo at 80 mg/kg", "setting": "[3]; Rattus norvegicus, 240 h, 80 mg/kg (sid), corn oil, oral", "value": 85, "unit": "%"}
    ]},
    {"molecule": "O=C1Nc2ccc(F)cc2C1=CNc1ccc(N2CCCCC2)cc1", "note": "[Example 221]", "values": [
      {"measurement": "IC50", "setting": "[1]", "value": 380, "unit": "nM"},
      {"measurement": "inhibition at 10 µM", "setting": "[2]; Homo sapiens", "value": 97.6, "unit": "%"},
      {"measurement": "IC50", "setting": "[2]; Homo sapiens", "value": "≤ 1000", "unit": "nM"}
    ]},
    {"molecule": "Cc1cccc2c1C(=CNc1ccc(NCCN3CCOCC3)cc1)C(=O)N2", "note": "[Example 242, 4-Methyl-3-{[4-(2-morpholin-4-yl-ethylamino)-phenylamino]-methylene}-1,3-dihydro-indol-2-one]", "values": [
      {"measurement": "VEGF Stimulated Ca^++ signal assay % inhibition @ 10 μM", "setting": "[2]", "value": 95.82, "unit": "%"}
    ]}
  ]
}
